One data set concerns Boophilus microplus. Kind of data set: Boophilus microplus test (BOOPMI injection). The class given is in vivo. Particulars: 20 µg / Tier, injection into the abdomen, after 7 days; 100 % = no tick laid fertile eggs. How it is done:
Boophilus microplus -Test (BOOPMI Injektion)
(§1) Lösungsmittel: Dimethylsulfoxid
Zur Herstellung einer zweckmäßigen Wirkstoffzubereitung vermischt man 10 mg Wirkstoff mit 0,5 ml Lösungsmittel und verdünnt das Konzentrat mit Wasser auf die gewünschte Konzentration. Die Wirkstofflösung wird in das Abdomen (Boophilus microplus) injiziert, die Tiere werden in Schalen überführt und in einem klimatisierten Raum aufbewahrt. Die Wirkungskontrolle erfolgt auf Ablage fertiler Eier. Nach 7 Tagen wird die Wirkung in % bestimmt. Dabei bedeutet 100%, dass keine Zecke fertile Eier gelegt hat.

Another data set concerns Spodoptera frugiperda. Kind of data set: Spodoptera frugiperda test (SPODFR spray treatment). It is filed as in vivo. Particulars: 500 g/ha, sprayed maize leaf discs, caterpillars, after 7 days; 100 % = all caterpillars killed. The text has this: Spodoptera frugiperda-Test (SPODFR Spritzbehandlung)
(§2) • Lösungsmittel: 78,0 GewichtsteileAceton 1,5 Gewichtsteile Dimethylformamid • Emulgator: 0,5 Gewichtsteile Alkylarylpolyglykolether
(§3) Zur Herstellung einer zweckmäßigen Wirkstoffzubereitung vermischt man 1 Gewichtsteil Wirkstoff mit den angegebenen Mengen Lösungsmittel und Emulgator und verdünnt das Konzentrat mit emulgatorhaltigem Wasser auf die gewünschte Konzentration.
Maisblattscheiben (Zea mays) werden mit einer Wirkstoffzubereitung der gewünschten Konzentration gespritzt und nach dem Abtrocknen mit Raupen des Heerwurms (Spodoptera frugiperda) besetzt.Nach 7 Tagen wird die Wirkung in % bestimmt. Dabei bedeutet 100 %, dass alle Raupen abgetötet wurden; 0 % bedeutet, dass keine Raupe abgetötet wurde.

For a further data set, the system named is Tetranychus urticae. The class given is in vivo. Particulars: foliar, 500 g/ha, 144 h.
Description: Tetranychus-Test, OP-resistent (TETRUR Spritzbehandlung)
as §2, §3
Bohnenblattscheiben (Phaseolus vulgaris), die von allen Stadien der Gemeinen Spinnmilbe (Tetranychus urticae) befallen sind, werden mit einer Wirkstoffzubereitung der gewünschten Konzentration gespritzt.
Nach 6 Tagen wird die Wirkung in % bestimmt. Dabei bedeutet 100 %, dass alle Spinnmilben abgetötet wurden; 0 % bedeutet, dass keine Spinnmilben abgetötet wurden.

The subject of another data set is Phaedon cochleariae. Kind of data set: Phaedon test (PHAECO spray treatment). It is filed as in vivo. Particulars: 500 g/ha, sprayed Chinese cabbage leaf discs, larvae, after 7 days; 100 % = all beetle larvae killed.
Description: Phaedon-Test (PHAECO Spritzbehandlung)
as §2, §3
Chinakohlblattscheiben (Brassica pekinensis) werden mit einer Wirkstoffzubereitung der gewünschten Konzentration gespritzt und nach dem Abtrocknen mit Larven des Meerrettichblattkäfers (Phaedon cochleariae) besetzt.
Nach 7 Tagen wird die Wirkung in % bestimmt. Dabei bedeutet 100 %, dass alle Käferlarven abgetötet wurden; 0 % bedeutet, dass keine Käferlarven abgetötet wurden.

The test system of another data set is Ctenocephalides felis. Kind of data set: Ctenocephalides felis oral test (CTECFE). The class given is in vivo. Particulars: 100 ppm in citrated cattle blood, oral uptake, adult fleas, after 2 days; 100 % = all fleas killed. As to the method:
Ctenocephalides felis oral (CTECFE)
Lösungsmittel: 1 Gewichtsteil Dimethylsulfoxid
Zwecks Herstellung einer zweckmäßigen Wirkstoffzubereitung vermischt man 10 mg Wirkstoff mit 0,5 ml Dimethylsulfoxid. Ein Teil des Konzentrats wird mit citriertem Rinderblut verdünnt und die gewünschte Konzentration hergestellt.
20 nüchterne adulte Flöhe (Ctenocephalides felis) werden in eine Kammer eingesetzt, die oben und unten mit Gaze verschlossen ist. Auf die Kammer wird ein Metallzylinder gestellt, dessen Unterseite mit Parafilm verschlossen ist. Der Zylinder enthält die Blut-Wirkstoffzubereitung, die von den Flöhen durch die Parafilmmembran aufgenommen werden kann. Nach 2 Tagen wird die Abtötung in % bestimmt. Dabei bedeutet 100 %, dass alle Flöhe abgetötet wurden; 0 % bedeutet, dass kein Floh abgetötet wurde.

The test system of a further data set is Lucilia cuprina Larven. Kind of data set: Lucilia cuprina test (LUCICU). It is filed as in vivo. Particulars: 100 ppm, treated horse meat, larvae, after 2 days; 100 % = all larvae killed. How it is done: Lucilia cuprina-Test (LUCICU)
as §1
Zur Herstellung einer zweckmäßigen Wirkstoffzubereitung vermischt man 10 mg Wirkstoff mit 0,5 ml Dimethylsulfoxid und verdünnt das Konzentrat mit Wasser auf die gewünschte Konzentration.Gefäße, die Pferdefleisch enthalten, das mit der Wirkstoffzubereitung der gewünschten Konzentration behandelt wurde, werden mit Lucilia cuprina Larven besetzt.
Nach 2 Tagen wird die Abtötung in % bestimmt. Dabei bedeutet 100 %, dass alle Larven abgetötet wurden; 0 % bedeutet, dass keine Larven abgetötet wurden.

For another data set, the system named is Musca domestica Adulten. Description: Musca domestica test (MUSCDO). The class given is in vivo. Particulars: 100 ppm, treated sponge, adults, after 2 days; 100 % = all flies killed. As to the method: Musca domestica-Test (MUSCDO)
as §1
Zur Herstellung einer zweckmäßigen Wirkstoffzubereitung vermischt man 10 mg Wirkstoff mit 0,5 ml Dimethylsulfoxid und verdünnt das Konzentrat mit Wasser auf die gewünschte Konzentration. Gefäße, die einen Schwamm enthalten, der mit der Wirkstoffzubereitung der gewünschten Konzentration behandelt wurde, werden mit Musca domestica Adulten besetzt.
Nach 2 Tagen wird die Abtötung in % bestimmt. Dabei bedeutet 100 %, dass alle Fliegen abgetötet wurden; 0 % bedeutet, dass keine Fliegen abgetötet wurden.

SMILES strings stand for the structures.

Broadly, the chromatographic logP is a lipophilicity value derived from retention on a column. A lower chromatographic logP goes with lower lipophilicity. `Cn1nc(C(F)(F)C(F)(F)F)c(C(F)(F)F)c1C(=O)Nc1ccc(Cl)c(C(=O)Nc2ccccc2)c1` [Ia-15]: the Wirkung is 100% in the data set on Boophilus microplus, 100% in the data set on Spodoptera frugiperda, 90% in the data set on Tetranychus urticae and 100% in the data set with Phaedon cochleariae. Besides, the chromatographic logP in “physchem” stood at 3.84. The “Wirkung (Abtötung in %)” value in the data set on Ctenocephalides felis and with Lucilia cuprina Larven was 100% throughout.

In the case of `Cn1nc(C(F)(F)C(F)(F)F)c(C(F)(F)F)c1C(=O)Nc1ccc(Cl)c(C(=O)Nc2ccccc2F)c1` [Ia-18, N-{4-Chlor-3-[(2-fluorphenyl)carbamoyl]phenyl}-1-methyl-3-(pentafluorethyl)-4-(trifluormethyl)-1H-pyrazol-5-carboxamid], the Wirkung with Boophilus microplus, in the data set on Spodoptera frugiperda, with Tetranychus urticae and in the data set with Phaedon cochleariae was 100% throughout. In the data set “physchem”, the chromatographic logP came to 3.94. Besides, the “Wirkung (Abtötung in %)” value in the data set on Ctenocephalides felis came out at 100%.

Turning to `Cn1nc(C(F)(F)C(F)(F)F)c(C(F)(F)F)c1C(=O)Nc1ccc(Cl)c(C(=O)Nc2cc(Cl)ccn2)c1` [Ia-26], the Wirkung with Boophilus microplus was 100%; with Spodoptera frugiperda, 100%; in the data set with Tetranychus urticae it was 90%; in the data set with Phaedon cochleariae it was 100%. Further, the “Wirkung (Abtötung in %)” value came to 80% in the data set with Musca domestica Adulten, 80% in the data set with Ctenocephalides felis and 100% in the data set on Lucilia cuprina Larven. The compound also gave a chromatographic logP in the data set “physchem” of 4.17.

`Cn1nc(C(F)(F)C(F)(F)F)c(C(F)(F)F)c1C(=O)Nc1ccc(Cl)c(C(=O)Nc2ccccn2)c1` [Ia-8, N-[4-Chlor-3-(pyrid-2-yl-carbamoyl)phenyl]-1-methyl-3-(pentafluorethyl)-4-(trifluormethyl)-1H-pyrazol-5-carboxamid]: the Wirkung in the data set on Boophilus microplus is reported as 100%; in the data set on Spodoptera frugiperda, 100%; in the data set with Tetranychus urticae, 80%; in the data set with Phaedon cochleariae it was 100%. In addition, in the data set “physchem”, the chromatographic logP came out at 3.53. The “Wirkung (Abtötung in %)” value in the data set with Ctenocephalides felis and in the data set on Lucilia cuprina Larven was 100% throughout.

For the compound `Cn1nc(C(F)(F)C(F)(F)F)c(C(F)(F)F)c1C(=O)Nc1ccc(Cl)c(C(=O)Nc2ccc(C(F)(F)F)cc2)c1` [Ia-36], the Wirkung in the data set with Boophilus microplus, in the data set on Spodoptera frugiperda and with Phaedon cochleariae was 100% throughout. Moreover, the chromatographic logP in “physchem” is 4.4. In addition, the “Wirkung (Abtötung in %)” value in the data set with Lucilia cuprina Larven was determined as 90%.

As to `Cn1nc(C(F)(F)C(F)(F)F)c(C(F)(F)F)c1C(=O)Nc1ccc(Cl)c(C(=O)Nc2ccc(Cl)cc2)c1` [Ia-28], the Wirkung in the data set with Boophilus microplus worked out at 100%; in the data set with Spodoptera frugiperda it was 100%; in the data set on Tetranychus urticae, 80%; in the data set on Phaedon cochleariae, 100%. In “physchem”, this compound registered a chromatographic logP of 4.23. The “Wirkung (Abtötung in %)” value in the data set on Ctenocephalides felis was determined as 80%; with Lucilia cuprina Larven it was 100%.

`Cn1nc(C(F)(F)C(F)(F)F)c(C(F)(F)F)c1C(=O)Nc1ccc(Cl)c(C(=O)Nc2cccnc2)c1` [Ia-2]: the Wirkung is 100% with Boophilus microplus, 100% with Spodoptera frugiperda, 90% with Tetranychus urticae and 100% with Phaedon cochleariae. The compound also gave a chromatographic logP in the data set “physchem” of 2.69. Further, the “Wirkung (Abtötung in %)” value with Ctenocephalides felis is 100%.

Consider `Cn1nc(C(F)(F)C(F)(F)F)c(C(F)(F)F)c1C(=O)Nc1ccc(Cl)c(C(=O)Nc2ccc(F)cc2)c1` [Ia-17], for which the Wirkung in the data set on Boophilus microplus came out at 100%; with Spodoptera frugiperda it was 100%; with Tetranychus urticae, 80%; in the data set on Phaedon cochleariae, 100%. Further, the figures for the “Wirkung (Abtötung in %)” value in the data set with Musca domestica Adulten, in the data set on Ctenocephalides felis and with Lucilia cuprina Larven were 100%, 90% and 100%, respectively. In “physchem”, this compound had a chromatographic logP of 3.89.

`Cn1nc(C(F)(F)C(F)(F)F)c(C(F)(F)F)c1C(=O)Nc1ccc(Cl)c(C(=O)Nc2ccc(F)cc2F)c1` [Ia-22]: the Wirkung in the data set on Boophilus microplus, in the data set with Spodoptera frugiperda, with Tetranychus urticae and in the data set on Phaedon cochleariae was 100% in each case. Besides, the “Wirkung (Abtötung in %)” value in the data set with Musca domestica Adulten was 90%; in the data set with Ctenocephalides felis it was 100%; in the data set on Lucilia cuprina Larven it was 100%. In the data set “physchem”, this compound had a chromatographic logP of 4.05.

With `Cc1cc(NC(=O)c2cc(NC(=O)c3c(C(F)(F)F)c(C(F)(F)C(F)(F)F)nn3C)ccc2Cl)ccc1F` [Ia-29], the Wirkung in the data set with Boophilus microplus, with Spodoptera frugiperda and with Phaedon cochleariae was 100% throughout. Besides, the chromatographic logP in the data set “physchem” was found to be 4.23. The “Wirkung (Abtötung in %)” value with Ctenocephalides felis worked out at 90%; in the data set on Lucilia cuprina Larven, 100%.

`COc1cccc(NC(=O)c2cc(NC(=O)c3c(C(F)(F)F)c(C(F)(F)C(F)(F)F)nn3C)ccc2Cl)c1` [Ia-16]: the Wirkung in the data set with Boophilus microplus was determined as 100%; in the data set with Spodoptera frugiperda, 100%; in the data set on Tetranychus urticae, 80%; in the data set on Phaedon cochleariae, 100%. Besides, the chromatographic logP in “physchem” turned out to be 3.84. Moreover, the “Wirkung (Abtötung in %)” value in the data set on Ctenocephalides felis amounted to 95%; in the data set with Lucilia cuprina Larven, 90%.

For the compound `Cn1nc(C(F)(F)C(F)(F)F)c(C(F)(F)F)c1C(=O)Nc1ccc(Cl)c(C(=O)Nc2cccc(Cl)c2)c1` [Ia-30], the Wirkung with Boophilus microplus turned out to be 100%; in the data set on Spodoptera frugiperda, 100%; in the data set with Tetranychus urticae, 90%; in the data set on Phaedon cochleariae, 100%. This compound returned a chromatographic logP in the data set “physchem” of 4.28. Moreover, the “Wirkung (Abtötung in %)” value in the data set on Ctenocephalides felis was 90%; with Lucilia cuprina Larven, 100%.

Consider `Cn1nc(C(F)(F)C(F)(F)F)c(C(F)(F)F)c1C(=O)Nc1ccc(Cl)c(C(=O)Nc2ccc(Cl)nc2)c1` [Ia-11], for which the Wirkung with Boophilus microplus is 100%; in the data set with Spodoptera frugiperda it was 100%; in the data set with Tetranychus urticae, 90%; with Phaedon cochleariae, 100%. In the data set “physchem”, the chromatographic logP is 3.68. For the same compound, the “Wirkung (Abtötung in %)” value is reported as 80% in the data set with Ctenocephalides felis and 100% in the data set on Lucilia cuprina Larven.

The values are drawn from patent EP2253617A1, “Halogenated compounds as pesticides” (Bayer CropScience AG, priority 2009, dated 2010).
